Source: patent US11851381B2, “Application of farnesene in preparing plant-derived urease inhibitor” (priority 2022, dated 2023)

Legend:
corns = assay: Pot experiment: combined application of farnesene and urea on growth of corns; format: in vivo, corn; details: potted corns; for Increase of dry weight / Yield increase: versus control without farnesene
From the text: Soil required for pot experiment is brown soil collected from Shenyang. 13 g of nitrogen phosphorus potassium fertilizer is used as base fertilizer to be applied in all layers according to a ratio of 26-10-12; and the fertilizer with farnescene and the fertilizer without farnescene are used as control, and the application amount is 0.5%, 1% and 5% of a pure nitrogen content in the fertilizer. Nitrogen fertilizer for test is urea, phosphorus fertilizer is calcium superphosphate, and potassium fertilizer is potassium sulfate. Each treatment is repeated for 5 times. The pretreated soil (filtered by a 5 mm sieve to remove stone pieces, roots, etc.) that is equivalent to 16 kg of air-dried oil is laid on square thick plastic paper with an edge length of 2 m, then the required fertilizer and inhibitor (if necessary) that are uniformly mixed in advance are applied uniformly to the soil, the paper is folded for multiple times by a diagonal folding method, in this period, it is necessary to lay the soil on the paper and then fold the paper, finally the soil is sufficiently and uniformly mixed with the fertilizer and inhibitor, the obtained mixture is transferred into a plastic pot (with a diameter of 28 cm and a height of 34 cm), and finally irrigation is carried out to make the water content of the soil reach 60% of the maximal field water holding capacity. Finally, a height about 5 cm is reserved between the soil surface and the top end of the pot. Three corn seeds are sowed in each pot in a sowing depth of 5 cm, and after the emergence (about 15 days), thinning is carried out to make each pot have one corn. Finally, all potted corns are carried onto a four-wheeled platform lorry and finally transferred into a net house. When in rainy days, the potted corns are transferred into a shed. The corns are watered manually every day in a growth period so as to maintain the soil moisture. The planting density is about 4000 corns per Mu, and a dry weight and yield of the corn are determined in autumn.

soil urease = assay: Inhibition of soil urease activity in incubated brown soil; format: biochemical
Protocol: (§1) (1) Pre-culture of soil: air-dried soil (brown soil) is filtered by a 2 mm sieve and then placed in a culture dish, distilled water accounting for 15% of the weight of the dried soil is added, after the dried soil is uniformly and thoroughly immersed with water, the soil is pre-cultured for 2 weeks in a constant temperature incubator at a constant temperature of 25° C. to restore the biological activity of the soil, and ventilation and constant moisture are kept in the pre-culture period.
(2) The pre-cultured soil is weighed, and added with DMSO solutions of farnesene and acetohydroxamic acid respectively, the concentrations of the farnesene and acetohydroxamic acid are 50 mg/kg (calculated by the dried soil) respectively, and a farnesene-soil mixture and an acetohydroxamic acid-soil mixture are obtained. 5 g of farnesece-soil mixture and 5 g of acetohydroxamic acid-soil mixture are weighed respectively and placed into glass test tubes (length 15 cm×diameter 15 mm), then 5 mL of distilled water is added respectively into the test tubes to make the soil located below a liquid surface, the mixtures in the test tubes are shaken by a vortex shaker and uniformly mixed; and at the same time, the pre-cultured soil without the inhibitor is used as control treatment (CK) and cultured in the constant temperature incubator at a constant temperature of 25° C., and sampling is carried out respectively on the 1st day, the 7th day, 14th day and 28th day after the culture (water is supplemented every day according to a weight method so as to keep a total weight of the test tube constant) for determination of urease activity. […]

[1] = system: soil urease-generating bacteria; assay: Inhibition of soil urease-generating bacteria (bacterial ureC gene copy number by quantitative PCR); details: urea 200 mg N kg^-1 dry soil, farnesene 0.5%, 2% of pure nitrogen
Protocol: as §1, with “at” for “at a constant temperature of”, “period, thereby obtaining the pre-cultured soil.” for “period.”
(2) The pre-cultured soil is weighed; urea is added according to a concentration of 200 mg N kg^−1 of dry soil; the farnesene is added according to concentrations of pure nitrogen of 0 (U), 0.5% (U+0.5%), 1% (U+1%) and 2% (U+2%); and at the same time, the pre-cultured soil without urea and farnescene is used as control treatment, and 5 treatments are carried out and repeated for 4 times. In each treatment, the required urea and farnesene are dissolved in a certain amount of deionized water according to a required amount, then the solution is uniformly mixed with the pre-cultured soil that is equivalent to 50 g of air-dried soil by a vacuum method, the water content of the soil is enabled to reach 60% of the field water holding capacity (WHC), and finally the solution is placed in a 150 mL centrifugal pipe with a cover. […]

[2] = target: T1, Canavalia ensiformis urease (Canavalia ensiformis, UniProt P07374); format: biochemical; details: incubated 20 min at 37° C., HEPES pH 7.5; unit inferred; read-out: median inhibitory concentration (IC50) for inhibiting the activity of Canavalia ensiformis urease
T1 construct: purchased Aladdin Company
Protocol: Acetohydroxamic acid is weighed, and mixed with 20 mM of HEPES buffer solution (with pH of 7.5) to prepare an acetohydroxamic acid solution of 0.1 μM, 0.5 μM, 1 μM, 3 μM, 5 μM, 10 μM, 20 μM, 40 μM, 60 μM and 80 μM, and the solution is cold stored in a brown bottle in a refrigerator at 4° C. for standby use;
Canavalia ensiformis urease is weighed, and dissolved in 20 mM of HEPES buffer solution (with pH of 7.5) to prepare the Canavalia ensiformis urease solution with a concentration of 10 U/mL, and the prepared solution is cold stored in the refrigerator at 4° C. for standby use. […]
A. 50 μL of the above prepared farnesene solution with different concentrations is collected, added with 100 μL of Canavalia ensiformis urease solution respectively, and uniformly mixed to obtain mixed solutions, and the mixed solutions are incubated for 20 min at 37° C.; 100 μL of urea solution is added for light avoidance reaction for 20 min at a room temperature; the Berthelot developing solution A is added and uniformly mixed, and the Berthelot developing solution B is added for development for 10 min to obtain an incubation solution; and 250 μL of incubation solution is absorbed onto a 96-well plate, an OD absolute value at 595 nm is determined by a microplate reader, and three times of test are carried in parallel for each concentration. […]

[3] = farnesene 0.5% of pure nitrogen content in the fertilizer
[4] = farnesene 0.5% of pure nitrogen content
[5] = farnesene 1% of pure nitrogen content in the fertilizer
[6] = farnesene 1% of pure nitrogen content
[7] = farnesene 5% of pure nitrogen content in the fertilizer
[8] = farnesene 5% of pure nitrogen content

T1 sequence (P07374 whole entry, looked up): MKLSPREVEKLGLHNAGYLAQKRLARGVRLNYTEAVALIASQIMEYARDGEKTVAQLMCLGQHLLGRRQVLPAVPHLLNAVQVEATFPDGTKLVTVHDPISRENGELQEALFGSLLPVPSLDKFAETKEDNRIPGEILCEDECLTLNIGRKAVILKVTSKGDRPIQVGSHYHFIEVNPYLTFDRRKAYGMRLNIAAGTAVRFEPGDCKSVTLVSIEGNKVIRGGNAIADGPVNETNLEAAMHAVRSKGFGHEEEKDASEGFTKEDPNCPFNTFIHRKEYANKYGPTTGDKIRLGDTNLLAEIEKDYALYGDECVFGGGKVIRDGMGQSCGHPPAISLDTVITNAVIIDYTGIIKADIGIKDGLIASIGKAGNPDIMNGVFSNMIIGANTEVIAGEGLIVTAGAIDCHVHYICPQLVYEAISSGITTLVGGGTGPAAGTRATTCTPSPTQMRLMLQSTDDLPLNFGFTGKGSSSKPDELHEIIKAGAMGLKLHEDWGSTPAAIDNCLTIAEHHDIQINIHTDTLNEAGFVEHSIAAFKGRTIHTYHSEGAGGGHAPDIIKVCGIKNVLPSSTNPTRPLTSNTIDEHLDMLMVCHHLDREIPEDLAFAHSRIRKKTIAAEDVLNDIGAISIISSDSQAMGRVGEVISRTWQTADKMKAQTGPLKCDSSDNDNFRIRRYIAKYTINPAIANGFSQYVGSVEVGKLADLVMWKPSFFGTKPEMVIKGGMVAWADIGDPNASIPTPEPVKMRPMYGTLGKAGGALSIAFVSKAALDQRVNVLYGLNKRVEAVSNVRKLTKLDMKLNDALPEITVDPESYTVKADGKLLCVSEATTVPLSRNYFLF

Substance: farnesene
- Dry weight (corns; [3]): 16006.3 kg ha^−1
- Yield (corns; [3]): 8004.2 kg ha^−1
- Increase of dry weight (corns; [4]): 4.1%
- Yield increase (corns; [4]): 4.5%
- Dry weight (corns; [5]): 16922.8 kg ha^−1
- Yield (corns; [5]): 8521.3 kg ha^−1
- Increase of dry weight (corns; [6]): 8.6%
- Yield increase (corns; [6]): 10.1%
- Dry weight (corns; [7]): 17371.5 kg ha^−1
- Yield (corns; [7]): 8714.3 kg ha^−1
- Increase of dry weight (corns; [8]): 10.2%
- Yield increase (corns; [8]): 12.2%
- duration of the inhibition effect on soil urease (soil urease; 50 mg/kg dried soil, brown soil, 25° C.): 14 days
- inhibition of the activity of soil urease (soil urease; 50 mg/kg dried soil, brown soil, 25° C., sampled day 1, 7, 14, 28): can effectively inhibit the activity of soil urease
- inhibition effect on soil urease compared with acetohydroxamic acid (soil urease; both at 50 mg/kg dried soil): equivalent to that of the commercial inhibitor acetohydroxamic acid
- duration of the inhibition effect on urease-generating bacteria [1]: 14 days
- inhibition of the proliferation of urease-generating bacteria (copy number of bacterial ureC genes) ([1]; 25° C.): can effectively inhibit the proliferation of the urease-generating bacteria
- IC50 [2]: 10.3 ± 0.25 µM
